Laboratory results taken from PMC6328172, “5-HT2 receptor binding, functional activity and selectivity in N-benzyltryptamines” (PLoS ONE, 2019).

Legend:
[1] = target: human 5-HT2B receptor (Homo sapiens, UniProt P41595); assay: Competition binding to the human 5-HT2B receptor ([3H]LSD, CHO-5-HT2B membranes)
[2] = target: T1, human 5-HT2A receptor (Homo sapiens, UniProt P28223); assay: Competition binding to the human 5-HT2A receptor ([3H]ketanserin, CHO-5-HT2A membranes); conditions: for Selectivity 5-HT2A/2C (binding): from Ki values, Table 1; for Ki: human receptor, [3H]ketanserin displacement, no unit in the table, nM, read-out: 5-HT2A Ki (in parentheses) (converted); for inhibition at 10 µM: values marked *
T1 construct: expressed in transfected cells; host or cells: CHO (CHO-5-HT2A cell line)

[3] = target: T2, human 5-HT2C receptor (Homo sapiens, UniProt P28335); assay: Ca2+ mobilization in HeLa h5-HT2C cells; assay type: cell-based; conditions: for EC50: Ca2+ mobilization, no unit in the table, nM, read-out: 5-HT2C EC50 (in parentheses) (converted); for Emax: HeLa, read-out: 5-HT2C % Emax; for Selectivity 5-HT2C/2A (functional, in parentheses): from EC50 values, Table 2
T2 construct: expressed in transfected cells; host or cells: HeLa (HeLa-5-HT2C cell line)
T2 sequence (P28335 33-458): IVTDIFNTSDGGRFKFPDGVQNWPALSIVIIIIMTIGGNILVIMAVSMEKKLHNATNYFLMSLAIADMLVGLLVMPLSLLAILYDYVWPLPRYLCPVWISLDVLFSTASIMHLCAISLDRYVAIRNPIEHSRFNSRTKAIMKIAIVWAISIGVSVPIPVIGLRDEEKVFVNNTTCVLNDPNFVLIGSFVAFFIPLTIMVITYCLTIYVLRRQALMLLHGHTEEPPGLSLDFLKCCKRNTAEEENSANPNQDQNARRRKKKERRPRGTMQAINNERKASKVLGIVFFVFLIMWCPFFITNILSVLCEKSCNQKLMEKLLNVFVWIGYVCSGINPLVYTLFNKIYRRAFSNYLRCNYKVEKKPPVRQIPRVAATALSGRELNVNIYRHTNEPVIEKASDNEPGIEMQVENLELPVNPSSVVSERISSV

[4] = target: T2, human 5-HT2C receptor; assay: Competition binding to the human 5-HT2C receptor ([3H]mesulergine, HeLa-5-HT2C membranes); conditions: for Selectivity 5-HT2C/2A (binding, in parentheses): from Ki values, Table 1; for Ki: human receptor, [3H]mesulergine displacement, no unit in the table, nM, read-out: 5-HT2C Ki (in parentheses) (converted); for inhibition at 10 µM: values marked *
[5] = target: T1, human 5-HT2A receptor; assay: Ca2+ mobilization in CHO h5-HT2A cells; assay type: cell-based; conditions: for EC50: Ca2+ mobilization, no unit in the table, nM, read-out: 5-HT2A EC50 (in parentheses) (converted); for Selectivity 5-HT2A/2C (functional): from EC50 values, Table 2; for Emax: relative efficacy, % of response to 5-HT

T1 sequence (P28223 whole entry): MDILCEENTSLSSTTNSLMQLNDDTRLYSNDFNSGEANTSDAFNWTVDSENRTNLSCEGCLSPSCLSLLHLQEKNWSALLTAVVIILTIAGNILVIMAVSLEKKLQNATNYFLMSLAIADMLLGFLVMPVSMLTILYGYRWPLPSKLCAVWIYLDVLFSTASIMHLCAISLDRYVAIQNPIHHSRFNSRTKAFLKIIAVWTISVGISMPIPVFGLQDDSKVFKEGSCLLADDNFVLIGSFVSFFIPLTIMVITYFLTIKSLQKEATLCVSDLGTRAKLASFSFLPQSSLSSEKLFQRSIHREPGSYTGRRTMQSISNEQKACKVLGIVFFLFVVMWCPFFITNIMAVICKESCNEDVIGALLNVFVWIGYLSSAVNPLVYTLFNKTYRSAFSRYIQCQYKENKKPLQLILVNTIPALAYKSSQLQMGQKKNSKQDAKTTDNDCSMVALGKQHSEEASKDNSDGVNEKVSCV
Sequence of human 5-HT2B receptor (P41595 whole entry): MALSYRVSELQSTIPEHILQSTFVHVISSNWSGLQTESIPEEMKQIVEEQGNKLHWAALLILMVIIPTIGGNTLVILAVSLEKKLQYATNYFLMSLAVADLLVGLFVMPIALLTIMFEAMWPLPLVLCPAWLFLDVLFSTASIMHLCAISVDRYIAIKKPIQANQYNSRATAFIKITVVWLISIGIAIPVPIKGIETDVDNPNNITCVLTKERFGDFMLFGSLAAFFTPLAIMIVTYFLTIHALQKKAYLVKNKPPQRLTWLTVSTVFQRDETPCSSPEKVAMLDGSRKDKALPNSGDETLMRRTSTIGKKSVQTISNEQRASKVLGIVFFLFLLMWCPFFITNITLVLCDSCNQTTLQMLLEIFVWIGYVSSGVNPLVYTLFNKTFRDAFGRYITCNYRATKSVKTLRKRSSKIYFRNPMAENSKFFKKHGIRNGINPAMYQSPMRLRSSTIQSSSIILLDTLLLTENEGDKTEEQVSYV

| Compound | Ki [1] [nM] | Selectivity 5-HT2A/2C (binding) [2] | Ki [2] [nM] | EC50 [3] [nM] | Emax [3] [%] | Selectivity 5-HT2C/2A (functional, in parentheses) [3] | Selectivity 5-HT2C/2A (binding, in parentheses) [4] | Ki [4] [nM] | EC50 [5] [nM] | Selectivity 5-HT2A/2C (functional) [5] | Emax [5] [%] | inhibition at 10 µM [2] [%] | inhibition at 10 µM [4] [%] |
| --- | --- | --- | --- | --- | --- | --- | --- | --- | --- | --- | --- | --- | --- |
| Clc1cccc(CNCCc2c[nH]c3ccccc23)c1 [Compound 10, N-(3-Chlorobenzyl)-[2-(1H-indol-3-yl)ethyl]amine] | 34.7 | 2.17 | 44.7 | 282 | 117 ± 4.82 | 0.43 | 0.46 | 97.7 | 120 | 2.34 | 57.9 ± 4.15 | – | – |
| COc1cccc(CNCCc2c[nH]c3ccccc23)c1O [Compound 19, N-(2-Hydroxy-3-methoxybenzyl)-[2-(1H-indol-3-yl)ethyl]amine] | 13.2 | 0.58 | 26.3 | 93.3 | 107 ± 6.91 | 0.52 | 1.72 | 16.6 | 49 | 1.91 | 26.2 ± 2.34 | – | – |
| Oc1ccc(Br)cc1CNCCc1c[nH]c2ccccc12 [Compound 26, N-(5-Bromo-2-hydroxybenzyl)-[2-(1H-indol-3-yl)ethyl]amine] | – | 2.39 | 309 | 708 | 108 ± 2.88 | – | 0.42 | 724 | – | – | – | – | – |
| Oc1c(Br)cc(Br)cc1CNCCc1c[nH]c2ccccc12 [Compound 35, N-(3,5-Dibromo-2-hydroxybenzyl)-[2-(1H-indol-3-yl)ethyl]amine] | 6030 | – | – | – | – | – | – | – | – | – | – | 12 ± 4 | 26 ± 4 |
| COc1cccc(CNCCc2c[nH]c3ccccc23)c1OC [Compound 20, N-(2,3-Dimethoxybenzyl)-[2-(1H-indol-3-yl)ethyl]amine] | 195 | 0.73 | 1510 | 3630 | 117 ± 9.18 | – | 1.37 | 1120 | – | – | – | – | – |
| COc1ccc(CNCCc2c[nH]c3ccccc23)c(OC)c1 [Compound 32, N-(2,4-Dimethoxybenzyl)-[2-(1H-indol-3-yl)ethyl]amine] | 234 | 0.41 | 661 | 240 | 117 ± 4.59 | – | 2.44 | 269 | – | – | – | – | – |
| O=[N+]([O-])c1ccc(O)c(CNCCc2c[nH]c3ccccc23)c1 [Compound 30, N-(5-Nitro-2-hydroxybenzyl)-[2-(1H-indol-3-yl)ethyl]amine] | 891 | – | – | – | – | – | – | – | – | – | – | 8 ± 4 | 31 ± 4 |
| COc1ccc(CNCCc2c[nH]c3ccccc23)cc1 [Compound 13, N-(4-Methoxybenzyl)-[2-(1H-indol-3-yl)ethyl]amine] | – | – | 457 | 8.32 | 91.4 ± 2.03 | – | – | 355 | 45.7 | – | 108 ± 2.78 | – | – |
| Oc1ccc(CNCCc2c[nH]c3ccccc23)cc1 [Compound 12, N-(4-Hydroxybenzyl)-[2-(1H-indol-3-yl)ethyl]amine] | 490 | 1.09 | 912 | 145 | 99.7 ± 2.81 | – | 0.92 | 1000 | – | – | – | – | – |
| O=[N+]([O-])c1ccc(CNCCc2c[nH]c3ccccc23)cc1 [Compound 18, N-(4-Nitrobenzyl)-[2-(1H-indol-3-yl)ethyl]amine] | 200 | 0.54 | 2630 | 525 | 92 ± 8.69 | – | 1.85 | 1410 | – | – | – | – | – |
| Cc1ccc(CNCCc2c[nH]c3ccccc23)cc1 [Compound 14, N-(4-Methylbenzyl)-[2-(1H-indol-3-yl)ethyl]amine] | 74.1 | 0.81 | 417 | 1200 | 100 ± 5.36 | – | 1.23 | 331 | – | – | – | – | – |
| NCCc1c[nH]c2ccccc12 [Tryptamine] | 110 | – | – | 1.17 | 108 ± 3.43 | – | – | 95.5 | – | – | 97.6 ± 2.34 | – | – |
